From US8802597B2, “Herbicidal pyrimidines” (E I du Pont de Nemours and Company, priority 2003, dated 2014)
Where two headings read alike, the source gives them in different places.

Assays:
Assay type in all cases: in vivo
[1] = test system: barnyardgrass (Echinochloa crus-galli); assay: Test A pre/postemergence; conditions: Echinochloa crus-galli, 240 h, read-out: Plant response rating, Barnyardgrass; for pest or weed control at 125 g/ha: 125 g ai/ha; for pest or weed control at 500 g/ha: 500 g ai/ha
In short: (§1)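 Soil: loam blended with sand. Formulation: non-phytotoxic solvent mixture with surfactant. Timing: preemergence soil spray plus concurrent postemergence spray (plants 2–10 cm, 1–2 leaves). Readout: visual injury versus untreated controls at ~10 days, 0–100.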

[2] = test system: crabgrass (Digitaria sanguinalis); assay: Test A pre/postemergence; conditions: Digitaria sanguinalis, 240 h, read-out: Plant response rating, Crabgrass; for pest or weed control at 125 g/ha: 125 g ai/ha; for pest or weed control at 500 g/ha: 500 g ai/ha
In short: as §1

[3] = test system: giant foxtail (Setaria faberi); assay: Test A pre/postemergence; conditions: Setaria faberi, 240 h, read-out: Plant response rating, Foxtail, Giant; for pest or weed control at 125 g/ha: 125 g ai/ha; for pest or weed control at 500 g/ha: 500 g ai/ha
In short: as §1

[4] = test system: morningglory (Ipomoea spp.); assay: Test A pre/postemergence; conditions: Ipomoea, 240 h, read-out: Plant response rating, Morningglory; for pest or weed control at 125 g/ha: 125 g ai/ha; for pest or weed control at 500 g/ha: 500 g ai/ha
In short: as §1

[5] = test system: redroot pigweed (Amaranthus retroflexus); assay: Test A pre/postemergence; conditions: Amaranthus retroflexus, 240 h, read-out: Plant response rating, Pigweed; for pest or weed control at 125 g/ha: 125 g ai/ha; for pest or weed control at 500 g/ha: 500 g ai/ha
In short: as §1

[6] = test system: velvetleaf (Abutilon theophrasti); assay: Test A pre/postemergence; conditions: Abutilon theophrasti, 240 h, read-out: Plant response rating, Velvetleaf; for pest or weed control at 125 g/ha: 125 g ai/ha; for pest or weed control at 500 g/ha: 500 g ai/ha
In short: as §1

[7] = test system: cocklebur (Xanthium strumarium); assay: Test C pre/postemergence; conditions: Xanthium strumarium; for pest or weed control at 8 g/ha: 8 g ai/ha; for pest or weed control at 16 g/ha: 16 g ai/ha; for pest or weed control at 31 g/ha: 31 g ai/ha; for pest or weed control at 62 g/ha: 62 g ai/ha
In short: (§2)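 Seeds sown and sprayed preemergence with test compound in non-phytotoxic solvent containing surfactant; postemergence sprays, same formulation, went onto plants 2 to 18 cm tall (1- to 4-leaf stage). Plants held in greenhouse 12 to 14 days, then visually rated against untreated controls on a 0–100 scale (0 no effect, 100 complete control).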

[8] = test system: common ragweed (Ambrosia elatior); assay: Test C pre/postemergence; conditions: Ambrosia artemisiifolia; for pest or weed control at 8 g/ha: 8 g ai/ha; for pest or weed control at 16 g/ha: 16 g ai/ha; for pest or weed control at 31 g/ha: 31 g ai/ha; for pest or weed control at 62 g/ha: 62 g ai/ha
In short: as §2

[9] = test system: corn (Zea mays); assay: Test C pre/postemergence; conditions: Zea mays; for Corn plant response rating (crop injury, 0 = no effect, 100 = complete kill) at 8 g/ha: 8 g ai/ha; for Corn plant response rating (crop injury, 0 = no effect, 100 = complete kill) at 16 g/ha: 16 g ai/ha; for Corn plant response rating (crop injury, 0 = no effect, 100 = complete kill) at 62 g/ha: 62 g ai/ha
In short: as §2

[10] = test system: lambsquarters (Chenopodium album); assay: Test C pre/postemergence; conditions: Chenopodium album; for pest or weed control at 8 g/ha: 8 g ai/ha; for pest or weed control at 16 g/ha: 16 g ai/ha; for pest or weed control at 31 g/ha: 31 g ai/ha; for pest or weed control at 62 g/ha: 62 g ai/ha
In short: as §2

[11] = test system: chickweed (Stellaria media); assay: Test C postemergence; conditions: Stellaria media, post-emergence
In short: as §2

[12] = post-emergence, Postemergence, 0 to 100 scale (0 no effect, 100 complete control)
[13] = pre-emergence, Preemergence, 0 to 100 scale where 0 is no effect and 100 is complete control, approximately ten days
[14] = post-emergence, Postemergence, read-out: Plant response rating (scale of 0 to 100), Cocklebur
[15] = pre-emergence, Preemergence, scale 0 to 100, 0 no effect, 100 complete control, read-out: Plant response rating, Cocklebur
[16] = post-emergence, Postemergence, read-out: Plant response rating (scale of 0 to 100), Ragweed
[17] = pre-emergence, Preemergence, scale 0 to 100, 0 no effect, 100 complete control, read-out: Plant response rating, Ragweed
[18] = post-emergence, Postemergence, read-out: Plant response rating (scale of 0 to 100), Corn
[19] = pre-emergence, Preemergence, scale 0 to 100, 0 no effect, 100 complete control, read-out: Plant response rating, Corn
[20] = post-emergence, Postemergence, read-out: Plant response rating (scale of 0 to 100), Lambsquarters
[21] = pre-emergence, Preemergence, scale 0 to 100, 0 no effect, 100 complete control, read-out: Plant response rating, Lambsquarters

For `Nc1nc(-c2ccc(Br)cc2)nc(C(=O)O)c1Cl` [Compound 95, 6-amino-2-(4-bromophenyl)-5-chloro-4-pyrimidinecarboxylic acid], the pest or weed control at 125 g/ha [1, 12] was 75%, the pest or weed control at 500 g/ha [1, 12] was 90% and the pest or weed control at 125 g/ha [1, 13] was 20%. It also gave a pest or weed control at 500 g/ha [1, 13] of 80%, a pest or weed control at 125 g/ha [2, 12] of 70% and a pest or weed control at 500 g/ha [2, 12] of 80%. For the same compound, the pest or weed control at 125 g/ha [2, 13] was 65%, the pest or weed control at 500 g/ha [2, 13] was 85% and the pest or weed control at 125 g/ha [3, 12] was 85%. For the same compound, the pest or weed control at 500 g/ha [3, 12] was 85%, the pest or weed control at 125 g/ha [3, 13] was 65% and the pest or weed control at 500 g/ha [3, 13] was 90%. For the same compound, the pest or weed control at 125 g/ha [4, 12] was 75%, the pest or weed control at 500 g/ha [4, 12] was 80% and the pest or weed control at 125 g/ha [4, 13] was 80%. It also gave a pest or weed control at 500 g/ha [4, 13] of 85%, a pest or weed control at 125 g/ha [5, 12] of 85% and a pest or weed control at 500 g/ha [5, 12] of 95%. It also gave a pest or weed control at 125 g/ha [5, 13] of 95%, a pest or weed control at 500 g/ha [5, 13] of 100% and a pest or weed control at 125 g/ha [6, 12] of 90%. The pest or weed control at 500 g/ha [6, 12] was 95%, the pest or weed control at 125 g/ha [6, 13] was 55% and the pest or weed control at 500 g/ha [6, 13] was 95%. It also gave a pest or weed control at 8 g/ha ([7]; post-emergence, Postemergence, scale 0 to 100, read-out: Plant response rating, Cocklebur) of 100%, a pest or weed control at 16 g/ha [7, 14] of 100% and a pest or weed control at 31 g/ha [7, 14] of 100%. The pest or weed control at 62 g/ha [7, 14] was 100%, the pest or weed control at 8 g/ha ([7]; pre-emergence, Preemergence, scale 0 to 100 (0 no effect, 100 complete control), read-out: Plant response rating, Cocklebur) was 0% and the pest or weed control at 16 g/ha [7, 15] was 0%. It also gave a pest or weed control at 31 g/ha [7, 15] of 0%, a pest or weed control at 62 g/ha [7, 15] of 60% and a pest or weed control at 8 g/ha ([8]; post-emergence, Postemergence, scale 0 to 100, read-out: Plant response rating, Ragweed) of 90%. For the same compound, the pest or weed control at 16 g/ha [8, 16] was 95%, the pest or weed control at 31 g/ha [8, 16] was 95% and the pest or weed control at 62 g/ha [8, 16] was 95%. It also gave a pest or weed control at 8 g/ha ([8]; pre-emergence, Preemergence, scale 0 to 100 (0 no effect, 100 complete control), read-out: Plant response rating, Ragweed) of 65%, a pest or weed control at 16 g/ha [8, 17] of 90% and a pest or weed control at 31 g/ha [8, 17] of 100%. The pest or weed control at 62 g/ha [8, 17] was 100%, the Corn plant response rating (crop injury, 0 = no effect, 100 = complete kill) at 8 g/ha ([9]; post-emergence, Postemergence, scale 0 to 100) was 20% and the Corn plant response rating (crop injury, 0 = no effect, 100 = complete kill) at 16 g/ha [9, 18] was 20%. The Corn plant response rating (crop injury, 0 = no effect, 100 = complete kill) at 62 g/ha [9, 18] was 35%, the Corn plant response rating (crop injury, 0 = no effect, 100 = complete kill) at 8 g/ha ([9]; pre-emergence, Preemergence, scale 0 to 100 (0 no effect, 100 complete control)) was 0% and the Corn plant response rating (crop injury, 0 = no effect, 100 = complete kill) at 16 g/ha [9, 19] was 0%. The Corn plant response rating (crop injury, 0 = no effect, 100 = complete kill) at 31 g/ha ([9]; pre-emergence, Preemergence, 31 g ai/ha, scale 0 to 100, 0 no effect, 100 complete control, read-out: Plant response rating, Corn) was 0%, the Corn plant response rating (crop injury, 0 = no effect, 100 = complete kill) at 62 g/ha [9, 19] was 5% and the pest or weed control at 8 g/ha ([10]; post-emergence, Postemergence, scale 0 to 100, read-out: Plant response rating, Lambsquarters) was 75%. For the same compound, the pest or weed control at 16 g/ha [10, 20] was 100%, the pest or weed control at 31 g/ha [10, 20] was 100% and the pest or weed control at 62 g/ha [10, 20] was 100%. For the same compound, the pest or weed control at 8 g/ha ([10]; pre-emergence, Preemergence, scale 0 to 100 (0 no effect, 100 complete control), read-out: Plant response rating, Lambsquarters) was 0%, the pest or weed control at 16 g/ha [10, 21] was 100% and the pest or weed control at 31 g/ha [10, 21] was 100%. The pest or weed control at 62 g/ha [10, 21] was 100%, the pest or weed control at 8 g/ha ([11]; 8 g ai/ha, scale 0 to 100, read-out: Plant response rating, Chickweed) was 95% and the pest or weed control at 62 g/ha ([11]; 62 g ai/ha, read-out: Plant response rating (scale of 0 to 100), Chickweed) was 95%.
